The assay concerns HCC. Description: Safety and efficacy study of TTI-101 in advanced solid tumors: best response (RECIST v1.1) in HCC participants. The format is in vivo, human. The note with it: for time partial response was sustained / best response: reduction in the sum of overall RECIST targets: non-viral HCC. As for the experimental part: This study evaluates the safety and efficacy of TTI-101 in advanced solid tumors. TTI-101 was administered twice daily at doses of 1.6 (Cohort 1; n=4), 3.2 (Cohort 2; n=3), or 6.4 mg/kg/dose (Cohort 3; n=8) of a Labrasol/PEG400 formulation (60:40% v/v) or 6.4 mg/kg/dose (Cohort 3a: n=37) or 12.8 mg/kg/dose (Cohort 4; n=10) of oral capsule formulation (composition comprising TTI-101 at a concentration of 92 mg/g in a mixture of Kolliphor RH 40 (PEG-40 hydrogenated castor oil). PEG600. Polysorbate 20, Labrasol, and citric acid). TTI-101 was administered twice daily at 6.4 mg/kg/dose (Cohort 5; n=7) of oral tablet formulation (comprising 200 mg of TTI-101).
These patients had failed all prior lines of therapy (median number of prior therapies=3). Furthermore, a disease control rate (defined as the proportion of patients in whom the best overall response is determined as complete response, partial response or stable disease according to RECIST v1.1) of 60% has been observed in the 15 heavily pre-treated HCC patients (9/15), which is similar to that reported with sorafenib in first-line therapy.

Setting [1] is: number of participants, 7 non-viral HCC participants.
[2] abbreviates: number of participants, 8 viral HCC participants.
[3] abbreviates: number of participants, all 15 evaluable HCC participants.

Regarding `COc1ccc(S(=O)(=O)Nc2cc(-c3c(O)ccc4ccccc34)c(O)c3ccccc23)cc1` [TTI-101, N-(1′,2-dihydroxy-1,2′-binaphthalen-4′-yl)-4-methoxybenzenesulfonamide], where the note is “7 non-viral HCC participants”, the “Disease Control Rate, HCC (non-viral)” value came out at 57%. The “Disease Control Rate, HCC (viral)” value (8 viral HCC participants) is recorded as 63%. Besides, the “time partial response was sustained” value (Participant A, 6.4 mg/kg/day) worked out at 11 months. For the same molecule, the “best response: reduction in the sum of overall RECIST targets” value (“best response: reduction in the sum” below) (Participant A, 6.4 mg/kg/day, failed sorafenib, pembrolizumab, nivolumab, nivolumab+bevacizumab) came out at 42%. Also, the “time partial response was sustained” value (Participant B, 12.8 mg/kg/day) came out at 14 months. For the same molecule, for the setting “Participant B, 12.8 mg/kg/day, failed lenvatinib and nivolumab”, the “best response: reduction in the sum” value is listed as 66%. Also, the “best response: reduction in the sum” value (Participant C, 12.8 mg/kg/day, failed atezolizumab+bevacizumab) is recorded as 45%. Besides, the “Disease Control Rate, HCC” value (complete response, partial response or stable disease by RECIST v1.1, 15 heavily pre-treated HCC patients (9/15)) was 60%. In addition, under setting [1], the “Progressive Disease, HCC (non-viral)” value is 3 and the “Stable Disease, HCC (non-viral)” value was found to be 1. Moreover, for the setting “number of participants, 7 non-viral HCC participants, TTI-101 monotherapy”, the “Partial Response, HCC (non-viral)” value is listed as 3. Under setting [2], the “Progressive Disease, HCC (viral)” value is given as 3 and the “Stable Disease, HCC (viral)” value amounted to 5. For the same molecule, the “Partial Response, HCC (viral)” value (number of participants, 8 viral HCC participants, TTI-101 monotherapy) is given as 0. Moreover, under setting [3], the “Progressive Disease, HCC” value is reported as 6 and the “Stable Disease, HCC” value was determined as 6. Further, the “Partial Response, HCC” value (number of participants, all 15 evaluable HCC participants, TTI-101 monotherapy, after two 28-day cycles, radiologically confirmed) came to 3.

The values are drawn from patent US20260137638A1, “STAT3 INHIBITORS FOR USE IN THE TREATMENT OF NON-VIRAL LIVER CANCER” (Tyardi Operating Company, Inc., priority 2022, published 2026).
